Publication PMC9848300, “Discovery of novel enasidenib analogues targeting inhibition of mutant isocitrate dehydrogenase 2 as antileukaemic agents” (Journal of Enzyme Inhibition and Medicinal Chemistry, 2023)

Columns and labels:
[1] = system: DU-145; test: NCI 60 antitumor screening (single dose / five doses); type: cell-based; conditions: Homo sapiens; for inhibition at 10 µM: DU-145 (prostate cancer), single dose 10 μM, read-out: Growth inhibition percentage (GI %)
[2] = system: IGROV1; test: as above; type: cell-based; conditions: Homo sapiens, IGROV-1; for inhibition at 10 µM: IGROV1 (ovarian cancer), single dose 10 μM, read-out: Growth inhibition percentage (GI %)
[3] = system: A549/ATCC; test: NCI 60 antitumor screening (single dose); type: cell-based; conditions: Homo sapiens; A549/ATCC (non-small cell lung cancer), single dose 10 μM; read-out: Growth inhibition percentage (GI %)
Summary of the method: (§1)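 Read-out is percent growth (G%) of treated cancer cells relative to untreated, converted to percent inhibition as 100 − G%. Each compound was applied once at 10 μM across 60 human tumour lines under the NCI protocol.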

[4] = system: SNB-19; test: NCI 60 antitumor screening (single dose); type: cell-based; conditions: Homo sapiens; SNB-19 (CNS cancer), single dose 10 μM; read-out: Growth inhibition percentage (GI %)
Summary of the method: as §1

[5] = system: HOP-62; test: NCI 60 antitumor screening (single dose); type: cell-based; conditions: Homo sapiens; HOP-62 (non-small cell lung cancer), single dose 10 μM; read-out: Growth inhibition percentage (GI %)
Summary of the method: (§2)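 NCI-60 protocol: single 10 μM dose against each cell line, run in triplicate. Percent growth (G%) of treated cells measured and growth inhibition reported as GI% = 100 − G%; panel mean also given.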

[6] = system: OVCAR-3; test: NCI 60 antitumor screening (single dose); type: cell-based; conditions: Homo sapiens; OVCAR-3 (ovarian cancer), single dose 10 μM; read-out: Growth inhibition percentage (GI %)
Summary of the method: as §1

[7] = system: SK-OV-3; test: NCI 60 antitumor screening (single dose); type: cell-based; conditions: Homo sapiens; SK-OV-3 (ovarian cancer), single dose 10 μM; read-out: Growth inhibition percentage (GI %)
Summary of the method: as §2

[8] = system: NCI-H23; test: NCI 60 antitumor screening (single dose); type: cell-based; conditions: Homo sapiens; NCI-H23 (non-small cell lung cancer), single dose 10 μM; read-out: Growth inhibition percentage (GI %)
Summary of the method: as §2

[9] = system: NCI-H460; test: NCI 60 antitumor screening (single dose); type: cell-based; conditions: Homo sapiens; NCI-H460 (non-small cell lung cancer), single dose 10 μM; read-out: Growth inhibition percentage (GI %)
Summary of the method: as §2

[10] = system: NCI-H522; test: NCI 60 antitumor screening (single dose); type: cell-based; conditions: Homo sapiens; NCI-H522 (non-small cell lung cancer), single dose 10 μM; read-out: Growth inhibition percentage (GI %)
Summary of the method: as §2

[11] = system: NCI-H322M; test: NCI 60 antitumor screening (single dose); type: cell-based; conditions: Homo sapiens; NCI-H322M (non-small cell lung cancer), single dose 10 μM; read-out: Growth inhibition percentage (GI %)
Summary of the method: as §1

[12] = system: SF-268; test: NCI 60 antitumor screening (single dose); type: cell-based; conditions: Homo sapiens; SF-268 (CNS cancer), single dose 10 μM; read-out: Growth inhibition percentage (GI %)
Summary of the method: as §2

[13] = system: OVCAR-5; test: NCI 60 antitumor screening (single dose); type: cell-based; conditions: Homo sapiens; OVCAR-5 (ovarian cancer), single dose 10 μM; read-out: Growth inhibition percentage (GI %)
Summary of the method: as §2

[14] = system: OVCAR-8; test: NCI 60 antitumor screening (single dose); type: cell-based; conditions: Homo sapiens; OVCAR-8 (ovarian cancer), single dose 10 μM; read-out: Growth inhibition percentage (GI %)
Summary of the method: as §1

[15] = system: U251; test: NCI 60 antitumor screening (single dose); type: cell-based; conditions: Homo sapiens, U-251; U251 (CNS cancer), single dose 10 μM; read-out: Growth inhibition percentage (GI %)
Summary of the method: as §2

[16] = system: MCF7; test: NCI 60 antitumor screening (single dose); type: cell-based; conditions: Homo sapiens; MCF7 (breast cancer), single dose 10 μM; read-out: Growth inhibition percentage (GI %)
Summary of the method: as §1

[17] = system: PC-3; test: NCI 60 antitumor screening (single dose); type: cell-based; conditions: Homo sapiens; PC-3 (prostate cancer), single dose 10 μM; read-out: Growth inhibition percentage (GI %)
Summary of the method: as §1

[18] = system: NCI-H226; test: NCI 60 antitumor screening (single dose); type: cell-based; conditions: Homo sapiens; NCI-H226 (non-small cell lung cancer), single dose 10 μM; read-out: Growth inhibition percentage (GI %)
Summary of the method: as §1

[19] = system: KM 12; test: NCI 60 antitumor screening (single dose); type: cell-based; conditions: Homo sapiens, KM12; KM 12 (colon cancer), single dose 10 μM; read-out: Growth inhibition percentage (GI %)
Summary of the method: as §1

[20] = system: CAKI-1; test: NCI 60 antitumor screening (single dose); type: cell-based; conditions: Homo sapiens; CAKI-1 (renal cancer), single dose 10 μM; read-out: Growth inhibition percentage (GI %)
Summary of the method: as §1

[21] = system: HCC-2998; test: NCI 60 antitumor screening (single dose); type: cell-based; conditions: Homo sapiens; HCC-2998 (colon cancer), single dose 10 μM; read-out: Growth inhibition percentage (GI %)
Summary of the method: as §2

[22] = system: OVCAR-4; test: NCI 60 antitumor screening (single dose); type: cell-based; conditions: Homo sapiens; OVCAR-4 (ovarian cancer), single dose 10 μM; read-out: Growth inhibition percentage (GI %)
Summary of the method: as §1

[23] = system: SW-620; test: NCI 60 antitumor screening (single dose / five doses); type: cell-based, human; conditions: Homo sapiens; for inhibition at 10 µM: SW-620 (colon cancer), single dose 10 μM, read-out: Growth inhibition percentage (GI %)
[24] = system: RXF 393; test: as above; type: cell-based; conditions: Homo sapiens; for inhibition at 10 µM: RXF 393 (renal cancer), single dose 10 μM, read-out: Growth inhibition percentage (GI %)
[25] = system: SK-MEL-28; test: as above; type: cell-based; conditions: Homo sapiens; for inhibition at 10 µM: SK-MEL-28 (melanoma), single dose 10 μM, read-out: Growth inhibition percentage (GI %)
[26] = system: SF-295; test: as above; type: cell-based; conditions: Homo sapiens; for inhibition at 10 µM: SF-295 (CNS cancer), single dose 10 μM, read-out: Growth inhibition percentage (GI %)

SMILES | inhibition at 10 µM [1] | inhibition at 10 µM [2] | inhibition at 10 µM [3] | inhibition at 10 µM [4] | inhibition at 10 µM [5] | inhibition at 10 µM [6] | inhibition at 10 µM [7] | inhibition at 10 µM [8] | inhibition at 10 µM [9] | inhibition at 10 µM [10] | inhibition at 10 µM [11] | inhibition at 10 µM [12] | inhibition at 10 µM [13] | inhibition at 10 µM [14] | inhibition at 10 µM [15] | inhibition at 10 µM [16] | inhibition at 10 µM [17] | inhibition at 10 µM [18] | inhibition at 10 µM [19] | inhibition at 10 µM [20] | further results
Oc1ccccc1/C=N/Nc1nc(N/N=C/c2ccccc2O)nc(N2CCOCC2)n1 [compound 6a, 2-[(1e)-(2-{4-[(E)-2-[(2-Hydroxyphenyl)methylidene]hydrazin-1-yl]-6-(morpholin-4-yl)-1,3,5-triazin-2-yl}hydrazin-1-ylidene)methyl]phenol] | 64.5% | 63% | 87% | 58.3% | 74.3% | 66.4% | 88.1% | 58.5% | 67.5% | 39.1% | 55.5% | 27.7% | 63% | 87.3% | 78% | 60% | 75.9% | 76.7% | 47.3% | 95.4% | GI50 ([1]; DU-145, five doses (0.01–100 μM), read-out: GI50): 6090 nM; GI50 ([2]; IGROV1, five doses (0.01–100 μM), read-out: GI50): 970 nM; inhibition at 10 µM [21]: 41.1%; inhibition at 10 µM [22]: 88.2%; GI50 ([23]; SW-620, SW-620, five doses (0.01–100 μM), read-out: GI50): 1780 nM; inhibition at 10 µM [23]: 61.5%; inhibition at 10 µM [24]: 101%; GI50 ([24]; RXF 393, five doses (0.01–100 μM), read-out: GI50): 270 nM; inhibition at 10 µM [25]: 72%; GI50 ([25]; SK-MEL-28, five doses (0.01–100 μM), read-out: GI50): 3200 nM; inhibition at 10 µM [26]: 80.4%; GI50 ([26]; SF-295, five doses (0.01–100 μM), read-out: GI50): 7670 nM
Brc1ccccc1/C=N/Nc1nc(N/N=C/c2ccccc2Br)nc(N2CCOCC2)n1 [compound 6b, 2,4-Bis[(E)-2-[(2-bromophenyl)methylidene]hydrazin-1-yl]-6-(morpholin-4-yl)-1,3,5-triazine] | 1.72% | 10.3% | 2.89% | -1.04% | -8.36% | 14.8% | -13.9% | -4.52% | -2.92% | 13.4% | 3.22% | -2.5% | -11.2% | 3.39% | 3.53% | 14.8% | 16% | 4.87% | 10.9% | -8.66% | inhibition at 10 µM [21]: 29.1%; inhibition at 10 µM [22]: 3.79%; inhibition at 10 µM [23]: 3.31%; inhibition at 10 µM [24]: 30.4%; inhibition at 10 µM [25]: 0.72%; inhibition at 10 µM [26]: 14.5%
